Source: patent publication US11117883B2 (Ariad Pharmaceuticals, Inc., priority 2016, dated 2021)

Assays:
Assay in all cases: c-Kit assay: Ba/F3 KIT mutant viability (Cell Titer-Glo, 72 hours)
Type in all cases: cell-based
[1] = target: T1, BAF3 FL KIT EX11DEL/T6701 (Homo sapiens, UniProt P10721, T670I, cells depend on it, form not given); settings: EX11DEL/T6701, viability after 72 hours
T1 construct: "BAF3 FL KIT EX11DEL/ T6701"
Procedure: (§1) KIT cDNAs were synthesized by GenScript and cloned into the pLVX-IRES-Puro vector (Clontech). Viral particles were produced by transfecting pLVX-IRES-puro vectors containing KIT mutant genes into HEK293 cells (Invitrogen) using the Trans-Lentiviral ORF Packaging Kit (Thermo Scientific). 48 hours post-transfection, virus-containing supernatants were harvested and incubated for another 48-72 hours with parental Ba/F3 cells (DSMZ) in the presence of 10 ng/mL […] (R&D Systems). Transduced Ba/F3 cells were then selected by IL-3 withdrawal and puromycin (0.5-1 μg/mL, Invitrogen).
(§2) Cell lines (i.e., EX11DEL, EX11DEL/D816H, EX11DEL/T670I, and EX11DEL/V654A) were plated into 384 well plates using RPMI 1640 supplemented with 10% FBS at densities that produced linear growth and incubated at 37° C. in 5% (v/v) CO2. Cells were treated with eight concentrations of compound over a 4-fold dilution (10 μM to 0.61 nM) and viability was assessed using Cell Titer-Glo assay (Promega) after 72 hours. Data were plotted as percent viability relative to vehicle-treated cells. Dose-responses curves were generated and used to calculate IC50 values.

BAF3 FL KIT EX11DEL = target: T2, BAF3 FL KIT EX11DEL (Homo sapiens, UniProt P10721, cells depend on it, form not given); settings: viability after 72 hours
T2 construct: "BAF3 FL KIT EX11DEL"
Procedure: as §1, §2

[2] = target: T3, BAF3 FL KIT EX11DEL/V654A (Homo sapiens, UniProt P10721, V654A, cells depend on it, form not given); settings: viability after 72 hours
T3 construct: "BAF3 FL KIT EX11DEL/ V654A"
Procedure: as §1, §2

[3] = target: T4, BAF3 FL KIT EX11DEL/D816H (Homo sapiens, UniProt P10721, D816H, cells depend on it, form not given); settings: viability after 72 hours
T4 construct: "BAF3 FL KIT EX11DEL/ D816H"
Procedure: as §1, §2

T1 sequence (P10721 with tags, fused parts or gaps DEL557-558/T670I, form open): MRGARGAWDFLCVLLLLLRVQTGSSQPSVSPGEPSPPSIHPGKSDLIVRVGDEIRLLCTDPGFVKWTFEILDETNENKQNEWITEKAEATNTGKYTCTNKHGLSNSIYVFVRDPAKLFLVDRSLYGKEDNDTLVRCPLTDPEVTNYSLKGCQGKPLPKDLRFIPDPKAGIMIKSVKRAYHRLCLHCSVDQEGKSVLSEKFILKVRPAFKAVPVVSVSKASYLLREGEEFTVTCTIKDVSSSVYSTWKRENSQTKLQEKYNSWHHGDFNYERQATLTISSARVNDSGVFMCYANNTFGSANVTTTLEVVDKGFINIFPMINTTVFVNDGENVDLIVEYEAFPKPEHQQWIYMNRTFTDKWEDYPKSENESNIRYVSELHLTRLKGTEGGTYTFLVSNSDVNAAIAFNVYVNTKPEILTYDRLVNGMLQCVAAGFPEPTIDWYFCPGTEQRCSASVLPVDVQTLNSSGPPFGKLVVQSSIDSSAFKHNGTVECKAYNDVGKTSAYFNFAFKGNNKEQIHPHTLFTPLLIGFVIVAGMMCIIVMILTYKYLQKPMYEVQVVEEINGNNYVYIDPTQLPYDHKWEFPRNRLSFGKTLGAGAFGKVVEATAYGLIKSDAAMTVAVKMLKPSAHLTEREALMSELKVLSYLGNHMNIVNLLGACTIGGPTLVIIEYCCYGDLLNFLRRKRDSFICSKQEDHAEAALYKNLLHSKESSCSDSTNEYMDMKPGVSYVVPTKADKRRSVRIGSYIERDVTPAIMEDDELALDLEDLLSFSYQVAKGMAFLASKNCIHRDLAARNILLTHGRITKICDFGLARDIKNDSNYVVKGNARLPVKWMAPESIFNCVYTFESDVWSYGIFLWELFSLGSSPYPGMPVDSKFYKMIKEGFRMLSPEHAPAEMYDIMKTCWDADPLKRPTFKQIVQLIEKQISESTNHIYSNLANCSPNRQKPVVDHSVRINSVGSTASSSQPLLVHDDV
T4 sequence (P10721 with tags, fused parts or gaps DEL557-558/D816H, form open): as the sequence (P10721 with tags, fused parts or gaps DEL557-558/T670I, form open) above, with I668T, D814H counted along it
T2 sequence (P10721 with tags, fused parts or gaps DEL557-558): as the sequence (P10721 with tags, fused parts or gaps DEL557-558/T670I, form open) above, with I668T counted along it
T3 sequence (P10721 with tags, fused parts or gaps DEL557-558/V654A, form open): as the sequence (P10721 with tags, fused parts or gaps DEL557-558/T670I, form open) above, with V652A, I668T counted along it

Cc1ccc(C(=O)Nc2cc(C(F)(F)F)ccn2)cc1C#Cc1ccc2c(c1)ncn2-c1cn(C)nn1 [Compound I-24, 4-methyl-3-((1-(1-methyl-1H-1,2,3-triazol-4-yl)-1H-benzo[d]imidazol-5-yl)ethynyl)-N-(4-(trifluoromethyl)pyridin-2-yl)benzamide]
GI50 [1]: < 10 nM | GI50 (BAF3 FL KIT EX11DEL): < 10 nM | GI50 [2]: 10 to 50 nM | GI50 [3]: 10 to 50 nM

Cc1ccc(NC(=O)c2cc(C(F)(F)F)ccn2)cc1C#Cc1ccc2c(c1)ncn2-c1cnn(CCO)c1 [Compound I-39, N-(3-((1-(1-(2-hydroxyethyl)-1H-pyrazol-4-yl)-1H-benzo[d]imidazol-5-yl)ethynyl)-4-methylphenyl)-4-(trifluoromethyl)picolinamide]
GI50 [1]: < 10 nM | GI50 (BAF3 FL KIT EX11DEL): < 10 nM | GI50 [2]: 10 to 50 nM | GI50 [3]: 10 to 50 nM

Cc1ccc(C(=O)Nc2cc(C(F)(F)F)ccn2)cc1C#Cc1ccc2c(c1)ncn2-c1cnn(C2CCOCC2)c1 [Compound I-33, 4-methyl-3-((1-(1-(tetrahydro-2H-pyran-4-yl)-1H-pyrazol-4-yl)-1H-benzo[d]imidazol-5-yl)ethynyl)-N-(4-(trifluoromethyl)pyridin-2-yl)benzamide]
GI50 [1]: < 10 nM | GI50 (BAF3 FL KIT EX11DEL): < 10 nM | GI50 [2]: 10 to 50 nM | GI50 [3]: 10 to 50 nM

CCN(CC)CCn1cc(-n2cnc3cc(C#Cc4cc(NC(=O)c5cc(C(F)(F)F)ccn5)ccc4C)ccc32)cn1 [Compound I-42, N-(3-((1-(1-(2-(diethylamino)ethyl)-1H-pyrazol-4-yl)-1H-benzo[d]imidazol-5-yl)ethynyl)-4-methylphenyl)-4-(trifluoromethyl)picolinamide]
GI50 [1]: 10 to 50 nM | GI50 (BAF3 FL KIT EX11DEL): 10 to 50 nM | GI50 [2]: 50 to 100 nM | GI50 [3]: 100 to 10000 nM

Cc1ccc(NC(=O)c2cc(C(F)(F)F)ccn2)cc1C#Cc1ccc2c(c1)ncn2-c1cn[nH]c1 [Compound I-43, N-(3-((1-(1H-pyrazol-4-yl)-1H-benzo[d]imidazol-5-yl)ethynyl)-4-methylphenyl)-4-(trifluoromethyl)picolinamide]
GI50 [1]: 50 to 100 nM | GI50 (BAF3 FL KIT EX11DEL): < 10 nM | GI50 [2]: 100 to 10000 nM | GI50 [3]: 50 to 100 nM

Cc1ccc(NC(=O)c2cc(C(F)(F)F)ccn2)cc1C#Cc1ccc2c(c1)ncn2C [Compound I-45, N-(4-methyl-3-((1-methyl-1H-benzo[d]imidazol-5-yl)ethynyl)phenyl)-4-(trifluoromethyl)picolinamide]
GI50 [1]: 10 to 50 nM | GI50 (BAF3 FL KIT EX11DEL): 10 to 50 nM | GI50 [2]: 50 to 100 nM | GI50 [3]: 50 to 100 nM

Cc1ccc(C(=O)Nc2cc(C(F)(F)F)ccn2)cc1C#Cc1ccc2c(c1)ncn2-c1cnn(C2CCN(C)CC2)c1 [Compound I-27, 4-methyl-3-((1-(1-(1-methylpiperidin-4-yl)-1H-pyrazol-4-yl)-1H-benzo[d]imidazol-5-yl)ethynyl)-N-(4-(trifluoromethyl)pyridin-2-yl)benzamide]
GI50 [1]: 10 to 50 nM | GI50 (BAF3 FL KIT EX11DEL): < 10 nM | GI50 [2]: 10 to 50 nM | GI50 [3]: 10 to 50 nM

COCCn1cc(-n2cnc3cc(C#Cc4cc(C(=O)Nc5cc(C(F)(F)F)ccn5)ccc4C)ccc32)cn1 [Compound I-32, 3-((1-(1-(2-methoxyethyl)-1H-pyrazol-4-yl)-1H-benzo[d]imidazol-5-yl)ethynyl)-4-methyl-N-(4-(trifluoromethyl)pyridin-2-yl)benzamide]
GI50 [1]: < 10 nM | GI50 (BAF3 FL KIT EX11DEL): < 10 nM | GI50 [2]: 10 to 50 nM | GI50 [3]: 10 to 50 nM

Cc1ccc(C(=O)Nc2cc(C(F)(F)F)ccn2)cc1C#Cc1ccc2c(c1)ncn2-c1ccccc1 [Compound I-21, 4-methyl-3-((1-phenyl-1H-benzo[d]imidazol-5-yl)ethynyl)-N-(4-(trifluoromethyl)pyridin-2-yl)benzamide]
GI50 [1]: 100 to 10000 nM | GI50 (BAF3 FL KIT EX11DEL): 100 to 10000 nM | GI50 [2]: 100 to 10000 nM | GI50 [3]: 100 to 10000 nM

Cn1cc(-n2cnc3cc(C#Cc4cc(C(=O)Nc5cc(C(F)(F)F)ccn5)ccc4F)ccc32)cn1 [Compound I-51, 4-fluoro-3-((1-(1-methyl-1H-pyrazol-4-yl)-1H-benzo[d]imidazol-5-yl)ethynyl)-N-(4-(trifluoromethyl)pyridin-2-yl)benzamide]
GI50 [1]: < 10 nM | GI50 (BAF3 FL KIT EX11DEL): < 10 nM | GI50 [2]: 10 to 50 nM | GI50 [3]: 100 to 10000 nM

Cc1ccc(C(=O)Nc2cc(C(F)(F)F)ccn2)cc1C#Cc1ccc2c(c1)ncn2CCN1CCOCC1 [Compound I-5, 4-methyl-3-((1-(2-morpholinoethyl)-1H-benzo[d]imidazol-5-yl)ethynyl)-N-(4-(trifluoromethyl)pyridin-2-yl)benzamide]
GI50 [1]: 100 to 10000 nM | GI50 (BAF3 FL KIT EX11DEL): 50 to 100 nM | GI50 [2]: 100 to 10000 nM | GI50 [3]: 100 to 10000 nM

Cc1ccc(C(=O)Nc2cc(C(F)(F)F)ccn2)cc1C#Cc1ccc2c(c1)ncn2-c1cnn(CCO)c1 [Compound I-31, 3-((1-(1-(2-hydroxyethyl)-1H-pyrazol-4-yl)-1H-benzo[d]imidazol-5-yl)ethynyl)-4-methyl-N-(4-(trifluoromethyl)pyridin-2-yl)benzamide]
GI50 [1]: < 10 nM | GI50 (BAF3 FL KIT EX11DEL): < 10 nM | GI50 [2]: 10 to 50 nM | GI50 [3]: 10 to 50 nM

Cn1cc(-n2cnc3cc(C#Cc4cccc(NC(=O)c5cc(C(F)(F)F)ccn5)c4)ccc32)cn1 [Compound I-49, N-(3-((1-(1-methyl-1H-pyrazol-4-yl)-1H-benzo[d]imidazol-5-yl)ethynyl)phenyl)-4-(trifluoromethyl)picolinamide]
GI50 [1]: 10 to 50 nM | GI50 (BAF3 FL KIT EX11DEL): < 10 nM | GI50 [2]: 50 to 100 nM | GI50 [3]: 100 to 10000 nM

Cc1ccc(C(=O)Nc2cc(C(F)(F)F)ccn2)cc1C#Cc1ccc2c(c1)ncn2-c1cccc(N2CCN(C)CC2)c1 [Compound I-14, 4-methyl-3-((1-(3-(4-methylpiperazin-1-yl)phenyl)-1H-benzo[d]imidazol-5-yl)ethynyl)-N-(4-(trifluoromethyl)pyridin-2-yl)benzamide]
GI50 [1]: 100 to 10000 nM | GI50 (BAF3 FL KIT EX11DEL): 50 to 100 nM | GI50 [2]: 100 to 10000 nM | GI50 [3]: 100 to 10000 nM

Cc1ccc(C(=O)Nc2cc(C(F)(F)F)ccn2)cc1C#Cc1ccc2c(c1)ncn2CCN(C)C [Compound I-3, 3-((1-(2-(dimethylamino)ethyl)-1H-benzo[d]imidazol-5-yl)ethynyl)-4-methyl-N-(4-(trifluoromethyl)pyridin-2-yl)benzamide]
GI50 [1]: 100 to 10000 nM | GI50 (BAF3 FL KIT EX11DEL): 50 to 100 nM | GI50 [2]: 100 to 10000 nM | GI50 [3]: 100 to 10000 nM

Cc1ccc(C(=O)Nc2cc(C(F)(F)F)ccn2)cc1C#Cc1ccc2c(c1)ncn2C1CCN(C)CC1 [Compound I-20, 4-methyl-3-((1-(1-methylpiperidin-4-yl)-1H-benzo[d]imidazol-5-yl)ethynyl)-N-(4-(trifluoromethyl)pyridin-2-yl)benzamide]
GI50 [1]: 100 to 10000 nM | GI50 (BAF3 FL KIT EX11DEL): 10 to 50 nM | GI50 [2]: 100 to 10000 nM | GI50 [3]: 100 to 10000 nM

Cc1ccc(C(=O)Nc2ccc(CN3CCCC3)c(C(F)(F)F)c2)cc1C#Cc1ccc2c(c1)ncn2C [Compound I-30, 4-methyl-3-((1-methyl-1H-benzo[d]imidazol-5-yl)ethynyl)-N-(4-(pyrrolidin-1-ylmethyl)-3-(trifluoromethyl)phenyl)benzamide]
GI50 [1]: 50 to 100 nM | GI50 (BAF3 FL KIT EX11DEL): 10 to 50 nM | GI50 [2]: 50 to 100 nM | GI50 [3]: 100 to 10000 nM

Cc1ccc(NC(=O)c2ccc(CN3CCOCC3)c(C(F)(F)F)c2)cc1C#Cc1ccc2c(c1)ncn2-c1cnn(C)c1 [Compound I-48, N-(4-methyl-3-((1-(1-methyl-1H-pyrazol-4-yl)-1H-benzo[d]imidazol-5-yl)ethynyl)phenyl)-4-(morpholinomethyl)-3-(trifluoromethyl)benzamide]
GI50 [1]: 10 to 50 nM | GI50 (BAF3 FL KIT EX11DEL): < 10 nM | GI50 [2]: 50 to 100 nM | GI50 [3]: 50 to 100 nM

Cc1ccc(C(=O)Nc2cc(C(F)(F)F)ccn2)cc1C#Cc1ccc2c(c1)ncn2Cc1cccnc1 [Compound I-12, 4-methyl-3-((1-(pyridin-3-ylmethyl)-1H-benzo[d]imidazol-5-yl)ethynyl)-N-(4-(trifluoromethyl)pyridin-2-yl)benzamide]
GI50 [1]: 100 to 10000 nM | GI50 (BAF3 FL KIT EX11DEL): 10 to 50 nM | GI50 [2]: 100 to 10000 nM | GI50 [3]: 100 to 10000 nM

Cc1ccc(C(=O)Nc2cc(C(F)(F)F)ccn2)cc1C#Cc1ccc2[nH]cnc2c1 [Compound I-2, 3-((1H-benzo[d]imidazol-5-yl)ethynyl)-4-methyl-N-(4-(trifluoromethyl)pyridin-2-yl)benzamide]
GI50 [1]: 10 to 50 nM | GI50 (BAF3 FL KIT EX11DEL): < 10 nM | GI50 [2]: 10 to 50 nM | GI50 [3]: 50 to 100 nM

Cc1ccc(C(=O)Nc2cc(C(F)(F)F)ccn2)cc1C#Cc1ccc2c(c1)ncn2C [Compound I-8, 4-methyl-3-((1-methyl-1H-benzo[d]imidazol-5-yl)ethynyl)-N-(4-(trifluoromethyl)pyridin-2-yl)benzamide]
GI50 [1]: 10 to 50 nM | GI50 (BAF3 FL KIT EX11DEL): 10 to 50 nM | GI50 [2]: 10 to 50 nM | GI50 [3]: 50 to 100 nM
